The record followed here is BindingDB's records for doi:10.1021/acs.jmedchem.0c01741 (Zhengzhou University, 2020).

The structures appear in SMILES notation.

The nature of the first data set: Inhibition of ABCB1 (unknown origin) expressed in HEK293 cells assessed as increase in reversal of resistance to paclitaxel-induced cytotoxicity by measuring paclitaxel IC50 at 20 uM pre-incubated for 4 hrs followed by paclitaxel addition and measured after 72 hrs by MTT assay (Rvb = 91.40 +/- 23.32 nM).
For `Cc1cc(Nc2ccc(F)cc2)n2nc(SCc3nc4ccccc4[nH]3)nc2n1`, the half-inhibitory concentration (IC50) (as a rule, the concentration at which inhibition is half-maximal) worked out at 5 nM.

A further data set in a line: Inhibition of ABCB1 in multidrug-resistant human SW620/Ad300 cells assessed as increase in reversal of resistance to paclitaxel-induced cytotoxicity by measuring paclitaxel IC50 at 20 uM pre-incubated for 4 hrs followed by paclitaxel addition and measured after 72 hrs by MTT assay (Rvb = 4233.18 +/- 499.10 nM). Background: Tetrazolium dyes change colour on reduction, which living cells bring about.
Consider `Cc1cc(Nc2ccc(F)cc2)n2nc(SCc3nc4ccccc4[nH]3)nc2n1`, for which the IC50 came to 22 nM.

The next data set in a line: Inhibition of ABCB1 in multidrug-resistant human KB-C2 cells assessed as increase in reversal of resistance to paclitaxel-induced cytotoxicity by measuring paclitaxel IC50 at 10 uM pre-incubated for 4 hrs followed by paclitaxel addition and measured after 72 hrs by MTT assay (Rvb = 1886.37 +/- 243.05 nM).
For the compound `Cc1cc(Nc2ccc(F)cc2)n2nc(SCc3nc4ccccc4[nH]3)nc2n1`, the half-maximal inhibitory concentration (IC50) was 22 nM.

A further data set is described as follows: Inhibition of ABCB1 in multidrug-resistant human SW620/Ad300 cells assessed as increase in reversal of resistance to paclitaxel-induced cytotoxicity by measuring paclitaxel IC50 pre-incubated for 4 hrs followed by paclitaxel addition and measured after 72 hrs by MTT assay (Rvb = 4.23 +/- 0.6 uM).
In the case of `Cc1cc(Nc2ccc(F)cc2)n2nc(SCc3nc4ccccc4[nH]3)nc2n1`, the half-maximal inhibitory concentration (IC50) was determined as 22 nM.

For the compound `Cc1cc(Nc2ccc(C#N)cc2)n2nc(SCc3nc4ccccc4[nH]3)nc2n1`, the half-maximal inhibitory concentration (IC50) was determined as 590 nM.

For `Cc1cc(Nc2ccc(C(=O)O)cc2)n2nc(SCc3nc4ccccc4[nH]3)nc2n1`, the IC50 came out at 4080 nM.

As to `COc1cc(Nc2cc(C)nc3nc(SCc4nc5ccccc5[nH]4)nn23)cc(OC)c1OC`, the IC50 was 250 nM.

Turning to `Cc1ccc(Nc2cc(C)nc3nc(SCc4nc5ccccc5[nH]4)nn23)cc1`, the IC50 is 500 nM.

On to `Cc1cc(Nc2ccc(Br)cc2)n2nc(SCc3nc4ccccc4[nH]3)nc2n1`, for which the 50% inhibitory concentration (IC50) was 450 nM.

Turning to `O=c1cc(-c2ccccc2)[nH]c2nc(SCc3nc4ccccc4[nH]3)nn12`, the concentration for half-maximal inhibition (IC50) worked out at 660 nM.

For the compound `Cc1cc(Nc2ccc(N3CCN(C)CC3)cc2)n2nc(SCc3nc4ccccc4[nH]3)nc2n1`, the IC50 was determined as 1590 nM.

For `Cc1cc(Nc2cc(C)[nH]n2)n2nc(SCc3nc4ccccc4[nH]3)nc2n1`, the half-inhibitory concentration (IC50) is 1570 nM.

For `Cc1cc(Nc2ccc3c(C)cc(=O)oc3c2)n2nc(SCc3nc4ccccc4[nH]3)nc2n1`, the half-maximal inhibitory concentration (IC50) worked out at 1140 nM.

Turning to `C#Cc1cccc(Nc2cc(C)nc3nc(SCc4nc5ccccc5[nH]4)nn23)c1`, the concentration for half-maximal inhibition (IC50) was found to be 1430 nM.

As to `Cc1cc(Nc2ccc(O)cc2)n2nc(SCc3nc4ccccc4[nH]3)nc2n1`, the IC50 turned out to be 2380 nM.

Take `COc1cccc(Nc2cc(C)nc3nc(SCc4nc5ccccc5[nH]4)nn23)c1`: the IC50 was determined as 570 nM.

In the case of `COc1ccc(Nc2cc(C)nc3nc(SCc4nc5ccccc5[nH]4)nn23)cc1`, the IC50 turned out to be 320 nM.

With `Cc1cc(Nc2ccc(Cl)cc2Cl)n2nc(SCc3nc4ccccc4[nH]3)nc2n1`, the half-inhibitory concentration (IC50) is 710 nM.

`CC(=O)c1ccc(Nc2cc(C)nc3nc(SCc4nc5ccccc5[nH]4)nn23)cc1`: the IC50 is 760 nM.

Consider `Cc1cc(Nc2ccc(OC(F)(F)F)cc2)n2nc(SCc3nc4ccccc4[nH]3)nc2n1`, for which the IC50 came to 720 nM.

`Cc1cc(Nc2ccc(C(F)(F)F)cc2)n2nc(SCc3nc4ccccc4[nH]3)nc2n1`: the concentration for half-maximal inhibition (IC50) was 850 nM.

Turning to `Cc1ccc(Nc2cc(C)nc3nc(SCc4nc5ccccc5[nH]4)nn23)c(F)c1`, the half-inhibitory concentration (IC50) is 630 nM.

On to `Cc1cc(Nc2ccc(F)c(C)c2)n2nc(SCc3nc4ccccc4[nH]3)nc2n1`, for which the IC50 was determined as 470 nM.

On to `Cc1cc(Nc2ccc(F)c(Cl)c2)n2nc(SCc3nc4ccccc4[nH]3)nc2n1`, for which the half-inhibitory concentration (IC50) was determined as 770 nM.

In the case of `Cc1cc(Nc2cccc(F)c2)n2nc(SCc3nc4ccccc4[nH]3)nc2n1`, the half-inhibitory concentration (IC50) turned out to be 520 nM.

Regarding `Cc1cc(Nc2ccccc2F)n2nc(SCc3nc4ccccc4[nH]3)nc2n1`, the IC50 worked out at 220 nM.

As for `Cc1cc(Nc2ccc(F)cc2)n2nc(SCC(=O)c3ccccc3)nc2n1`, the IC50 worked out at 1260 nM.

Regarding `Cc1cc(Nc2ccc(F)cc2)n2nc(SCc3csc4ccc(Cl)cc34)nc2n1`, the half-maximal inhibitory concentration (IC50) was 2840 nM.

Take `Cc1cc(Nc2ccc(F)cc2)n2nc(SCC3CC3)nc2n1`: the IC50 was found to be 4110 nM.

`C#CCSc1nc2nc(C)cc(Nc3ccc(F)cc3)n2n1`: the IC50 is 3360 nM.

With `C=CCSc1nc2nc(C)cc(Nc3ccc(F)cc3)n2n1`, the 50% inhibitory concentration (IC50) was 4200 nM.

With `CCCSc1nc2nc(C)cc(Nc3ccc(F)cc3)n2n1`, the IC50 worked out at 3540 nM.

Regarding `Cc1cc(Nc2ccc(F)cc2)n2nc(SCCCc3ccccc3)nc2n1`, the IC50 amounted to 4220 nM.

`Cc1cc(Nc2ccc(F)cc2)n2nc(SCCc3ccccc3)nc2n1`: the half-maximal inhibitory concentration (IC50) was found to be 1550 nM.

For the compound `Cc1cc(Nc2ccc(F)cc2)n2nc(SCc3cccc4ccccc34)nc2n1`, the IC50 was 1740 nM.

With `Cc1cc(Nc2ccc(F)cc2)n2nc(SCc3c(Cl)cccc3Cl)nc2n1`, the half-inhibitory concentration (IC50) worked out at 1930 nM.

As to `Cc1cc(Nc2ccc(F)cc2)n2nc(SCc3cccc([N+](=O)[O-])c3)nc2n1`, the IC50 was 1990 nM.

On to `Cc1cc(Nc2ccc(F)cc2)n2nc(SCc3ccc([N+](=O)[O-])cc3)nc2n1`, for which the IC50 stood at 2280 nM.

Turning to `Cc1cc(Nc2ccc(F)cc2)n2nc(SCc3ccc(C(F)(F)F)cc3)nc2n1`, the IC50 stood at 2570 nM.

Turning to `Cc1cc(Nc2ccc(F)cc2)n2nc(SCc3cccc(Br)c3)nc2n1`, the IC50 was 2040 nM.

For `Cc1cc(Nc2ccc(F)cc2)n2nc(SCc3ccccc3Br)nc2n1`, the IC50 came to 1640 nM.

For `Cc1cc(Nc2ccc(F)cc2)n2nc(SCc3ccc(Br)cc3)nc2n1`, the IC50 was 1370 nM.

As to `Cc1cc(Nc2ccc(F)cc2)n2nc(SCc3ccc(Cl)cc3)nc2n1`, the IC50 amounted to 1890 nM.

With `Cc1cc(Nc2ccc(F)cc2)n2nc(SCc3ccc(F)cc3)nc2n1`, the IC50 was 1270 nM.

As for `CC(C)c1cc(Nc2ccc(F)cc2)n2nc(SCc3ccccc3)nc2n1`, the IC50 turned out to be 1440 nM.

A short description of the next data set: Inhibition of ABCB1 (unknown origin) expressed in HEK293 cells assessed as increase in reversal of resistance to paclitaxel-induced cytotoxicity by measuring paclitaxel IC50 at 10 uM pre-incubated for 4 hrs followed by paclitaxel addition and measured after 72 hrs by MTT assay (Rvb = 91.40 +/- 23.32 nM).
In the case of `Cc1cc(Nc2ccc(F)cc2)n2nc(SCc3nc4ccccc4[nH]3)nc2n1`, the IC50 stood at 10 nM.

The next data set is described as follows: Inhibition of ABCB1 in multidrug-resistant human SW620/Ad300 cells assessed as increase in reversal of resistance to paclitaxel-induced cytotoxicity by measuring paclitaxel IC50 at 10 uM pre-incubated for 4 hrs followed by paclitaxel addition and measured after 72 hrs by MTT assay (Rvb = 4233.18 +/- 499.10 nM).
For `Cc1cc(Nc2ccc(F)cc2)n2nc(SCc3nc4ccccc4[nH]3)nc2n1`, the IC50 was 73.6 nM.

A short description of a further data set: Inhibition of ABCB1 in multidrug-resistant human KB-C2 cells assessed as increase in reversal of resistance to paclitaxel-induced cytotoxicity by measuring paclitaxel IC50 at 20 uM pre-incubated for 4 hrs followed by paclitaxel addition and measured after 72 hrs by MTT assay (Rvb = 1886.37 +/- 243.05 nM).
On to `Cc1cc(Nc2ccc(F)cc2)n2nc(SCc3nc4ccccc4[nH]3)nc2n1`, for which the half-maximal inhibitory concentration (IC50) is 4.8 nM.
